Values after ≈ are worked out from the molar mass of the structure shown. Active and inactive are the calls of the source. The calls are words filed in the database; no cut-off is given here.
What was measured:
B16-F10 [1] = experiment: Antiproliferative activity against mouse B16-F10 cells harboring wild type MTAP assessed as inhibition of cell viability measured for 96 hrs by SRB assay; format: functional, cell-based; conditions: B16-F10, 96 h
[2] = target: S-adenosylmethionine synthase isoform type-2 (Mus musculus) (UniProt Q3THS6); experiment: Inhibition of MAT2A in mouse B16-F10 cells assessed as reduction in SAM level measured for 4 hrs by immunoblotting analysis; format: cell-based; conditions: dose <= 1.0 µM
Sequence of S-adenosylmethionine synthase isoform type-2 (Mus musculus) (Q3THS6 whole entry, canonical isoform): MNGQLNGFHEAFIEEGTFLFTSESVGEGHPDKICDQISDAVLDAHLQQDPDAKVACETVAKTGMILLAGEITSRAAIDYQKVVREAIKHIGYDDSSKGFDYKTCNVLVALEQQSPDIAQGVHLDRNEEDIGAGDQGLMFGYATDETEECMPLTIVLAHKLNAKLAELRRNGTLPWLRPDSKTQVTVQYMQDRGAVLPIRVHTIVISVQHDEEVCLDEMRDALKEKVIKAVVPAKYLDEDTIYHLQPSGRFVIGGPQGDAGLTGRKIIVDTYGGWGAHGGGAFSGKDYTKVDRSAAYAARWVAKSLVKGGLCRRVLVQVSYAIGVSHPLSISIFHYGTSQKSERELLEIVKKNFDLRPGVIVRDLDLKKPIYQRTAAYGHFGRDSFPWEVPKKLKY

[3] = target: T1, S-adenosylmethionine synthase isoform type-2 (Homo sapiens, UniProt P31153); experiment: Inhibition of MAT2A in human MIA PaCa-2 cells assessed as reduction in SAM level measured for 4 hrs by immunoblotting analysis; format: cell-based; conditions: dose <= 1.0 µM
Target sequence in this assay (P31153 whole entry, looked up, canonical isoform): as the sequence (Q3THS6 whole entry, canonical isoform) above, with I77V, I87V counted along it

MIA PaCa-2 [4] = experiment: Antiproliferative activity against MTAP null human MIA PaCa-2 cells assessed as inhibition of cell viability measured for 96 hrs by SRB assay; format: functional, cell-based
[5] = Plasma protein binding in human assessed as unbound fraction; format: ADME, cell-free
[6] = target: Voltage-gated inwardly rectifying potassium channel KCNH2 (Homo sapiens, UniProt Q12809); experiment: Inhibition of hERG expressed in CHO cells incubated for 12 hrs by Qpatch assay; format: toxicity, cell-based
Sequence of Voltage-gated inwardly rectifying potassium channel KCNH2 (Q12809 whole entry): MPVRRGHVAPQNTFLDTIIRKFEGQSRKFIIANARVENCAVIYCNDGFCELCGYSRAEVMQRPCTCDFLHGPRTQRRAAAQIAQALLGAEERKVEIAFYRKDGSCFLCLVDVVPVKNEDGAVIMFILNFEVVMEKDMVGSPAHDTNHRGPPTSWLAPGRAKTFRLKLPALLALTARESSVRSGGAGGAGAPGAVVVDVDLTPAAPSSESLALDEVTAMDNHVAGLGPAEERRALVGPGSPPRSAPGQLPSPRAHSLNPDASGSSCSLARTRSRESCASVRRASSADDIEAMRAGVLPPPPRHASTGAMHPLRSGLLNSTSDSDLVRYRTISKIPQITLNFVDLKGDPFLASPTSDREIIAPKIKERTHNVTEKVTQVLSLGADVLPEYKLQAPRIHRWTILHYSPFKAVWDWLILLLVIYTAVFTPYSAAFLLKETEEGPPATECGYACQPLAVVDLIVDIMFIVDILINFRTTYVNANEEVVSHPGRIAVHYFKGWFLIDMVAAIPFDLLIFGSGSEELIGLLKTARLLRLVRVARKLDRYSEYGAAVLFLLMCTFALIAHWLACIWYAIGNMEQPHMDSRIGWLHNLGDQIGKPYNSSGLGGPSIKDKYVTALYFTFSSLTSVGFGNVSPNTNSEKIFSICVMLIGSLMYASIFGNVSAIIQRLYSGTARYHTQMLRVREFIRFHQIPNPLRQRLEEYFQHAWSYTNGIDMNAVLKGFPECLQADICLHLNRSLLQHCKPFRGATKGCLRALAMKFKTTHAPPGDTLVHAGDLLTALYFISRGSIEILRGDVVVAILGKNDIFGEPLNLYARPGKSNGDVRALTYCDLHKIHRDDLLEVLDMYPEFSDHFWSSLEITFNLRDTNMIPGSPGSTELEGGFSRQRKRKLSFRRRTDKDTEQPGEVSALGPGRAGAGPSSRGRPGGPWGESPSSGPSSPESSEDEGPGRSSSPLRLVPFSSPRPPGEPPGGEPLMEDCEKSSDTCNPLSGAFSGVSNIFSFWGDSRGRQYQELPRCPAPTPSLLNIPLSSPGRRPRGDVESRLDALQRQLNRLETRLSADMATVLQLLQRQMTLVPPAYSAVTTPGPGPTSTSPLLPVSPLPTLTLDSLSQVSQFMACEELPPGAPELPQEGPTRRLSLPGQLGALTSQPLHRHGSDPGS

MKN-45 = experiment: Antiproliferative activity against MTAP null human MKN-45 cells assessed as inhibition of cell viability measured for 96 hrs by SRB assay; format: functional, cell-based
[7] = target: S-adenosylmethionine synthase isoform type-2 (Mus musculus) (UniProt Q3THS6); experiment: Inhibition of MAT2A in MTAP null mouse B16-F10 cells assessed as reduction in SAM level measured for 4 hrs by immunoblotting analysis; format: cell-based; conditions: dose <= 1.0 µM
B16-F10 [8] = experiment: Antitumor activity against MTAP-knockout mouse B16-F10 cells implanted mouse assessed as reduction in SAM level in tumor at 30 to 60 mg/kg, po administered for 10 days and measured after 12 hrs; format: functional, organism-based; conditions: dose 30-60 mg/kg, time 10.5 day
MIA PaCa-2 [9] = experiment: Antitumor activity against MTAP null human MIA PaCa-2 cells xenografted in mouse assessed as tumor growth inhibition at 60 mg/kg, po measured after 28 days; format: functional, organism-based; conditions: time 28.0 day
MDA-MB-231 = experiment: Antiproliferative activity against MTAP null human MDA-MB-231 cells assessed as inhibition of cell viability measured for 96 hrs by SRB assay; format: functional, cell-based
SF-126 = experiment: Induction of DNA damage in human SF-126 cells harboring wild type MTAP assessed as increase in gammaH2AX level at 0.1 to 10 uM measured for 96 hrs by immunofluorescence analysis; format: functional, cell-based; conditions: dose 0.1-10 µM
Cytochrome P450 1A2 = target: T2, Cytochrome P450 1A2 (Homo sapiens, UniProt P05177); experiment: Inhibition of CYP1A2 in human liver microsomes using phenacetin as substrate incubated for 10 mins in presence of NADPH by LC-MS/MS analysis; format: ADME, Microsome
T2 sequence (P05177 whole entry): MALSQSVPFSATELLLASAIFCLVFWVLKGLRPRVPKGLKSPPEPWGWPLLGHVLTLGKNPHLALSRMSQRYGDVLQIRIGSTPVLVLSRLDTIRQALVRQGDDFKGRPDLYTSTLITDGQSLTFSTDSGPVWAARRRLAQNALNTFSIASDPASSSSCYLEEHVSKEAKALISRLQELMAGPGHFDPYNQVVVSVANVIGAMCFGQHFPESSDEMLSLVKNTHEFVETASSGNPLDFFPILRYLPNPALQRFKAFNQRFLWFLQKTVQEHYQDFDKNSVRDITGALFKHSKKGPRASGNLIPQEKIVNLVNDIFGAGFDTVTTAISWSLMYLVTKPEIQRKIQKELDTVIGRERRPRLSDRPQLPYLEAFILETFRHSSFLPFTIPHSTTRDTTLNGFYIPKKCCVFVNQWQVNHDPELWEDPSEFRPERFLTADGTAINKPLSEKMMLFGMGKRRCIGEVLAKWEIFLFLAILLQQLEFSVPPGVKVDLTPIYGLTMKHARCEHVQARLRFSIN

B16-F10 [10] = experiment: Antiproliferative activity against mouse B16-F10 cells harboring MTAP D220A mutant assessed as inhibition of cell proliferation measured for 96 hrs by SRB assay; format: functional, cell-based
Daoy = experiment: Antitumor activity against human Daoy cells xenografted in mouse assessed as reduction in SDMA level in tumor at 30 mg/kg, po measured after 28 days; format: functional, organism-based; conditions: time 28.0 day
[11] = Lipophilicity, LogD of the compound in 1-Octanol/PBS by shake flask method; format: physicochemical
[12] = Plasma protein binding in mouse assessed as unbound fraction; format: ADME, cell-free
[13] = Clearance in male ICR mouse at 1 mg/kg, iv measured upto 36 hrs by LC-MS/MS analysis; format: ADME, organism-based; conditions: in vivo
[14] = Cmax in male ICR mouse at 10 mg/kg, po measured upto 36 hrs by LC-MS/MS analysis; format: ADME, organism-based; conditions: in vivo
Cytochrome P450 2D6 = Cytochrome P450 2D6 (Homo sapiens, UniProt P10635); experiment: Inhibition of CYP2D6 in human liver microsomes using dextromethorphan as substrate incubated for 10 mins in presence of NADPH by LC-MS/MS analysis; format: ADME, Microsome
Sequence of Cytochrome P450 2D6 (P10635 whole entry): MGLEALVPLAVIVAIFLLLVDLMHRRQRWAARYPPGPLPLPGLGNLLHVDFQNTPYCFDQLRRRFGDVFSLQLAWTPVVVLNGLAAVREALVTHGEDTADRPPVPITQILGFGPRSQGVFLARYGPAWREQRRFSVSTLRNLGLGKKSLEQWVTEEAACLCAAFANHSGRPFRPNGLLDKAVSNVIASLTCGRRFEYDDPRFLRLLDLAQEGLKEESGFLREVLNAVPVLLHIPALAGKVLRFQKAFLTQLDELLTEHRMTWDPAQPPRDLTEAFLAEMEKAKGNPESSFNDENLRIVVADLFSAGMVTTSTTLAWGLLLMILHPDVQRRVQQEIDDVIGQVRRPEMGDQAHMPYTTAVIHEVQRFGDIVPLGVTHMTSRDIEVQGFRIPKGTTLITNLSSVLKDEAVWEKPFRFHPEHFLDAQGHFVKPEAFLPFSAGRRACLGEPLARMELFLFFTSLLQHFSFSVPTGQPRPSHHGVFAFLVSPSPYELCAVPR

[15] = Half life in male ICR mouse at 10 mg/kg, po measured upto 36 hrs by LC-MS/MS analysis; format: ADME, organism-based; conditions: in vivo
B16-F10 [16] = experiment: Antitumor activity against MTAP-knockout mouse B16-F10 cells implanted in mouse assessed as reduction in SAM level in plasma at 30 to 60 mg/kg, po administered for 10 days and measured after 12 hrs; format: functional, organism-based; conditions: dose 30-60 mg/kg, time 10.5 day
[17] = AUC (0 to t) in male ICR mouse at 1 mg/kg, iv measured upto 36 hrs by LC-MS/MS analysis; format: ADME, organism-based; conditions: in vivo
BXPC-3 = experiment: Antiproliferative activity against MTAP null human BXPC-3 cells assessed as inhibition of cell viability measured for 96 hrs by SRB assay; format: functional, cell-based
B16-F10 [18] = experiment: Antitumor activity against mouse B16-F10 cells harboring wild type MTAP implanted in mouse assessed as reduction in tumor volume at 30 to 60 mg/kg, po administered for 10 days and measured after 12 days; format: functional, organism-based; conditions: dose 30-60 mg/kg, time 22.0 day
[19] = Selectivity index, ratio of IC50 for antiproliferative activity against MTAP knockout human SF-126 cells to IC50 for antiproliferative activity against human SF-126 cells harboring wild type MTAP; format: functional
MIA PaCa-2 [20] = experiment: Antitumor activity against MTAP null human MIA PaCa-2 cells xenografted in mouse assessed as inhibition of SAM production in tumor at 30 to 60 mg/kg, po measured after 28 days; format: functional, organism-based; conditions: dose 30-60 mg/kg, time 28.0 day
[21] = target: T1, S-adenosylmethionine synthase isoform type-2; experiment: Inhibition of MAT2A in MTAP null human MIA PaCa-2 cells assessed as reduction in SAM level measured for 4 hrs by immunoblotting analysis; format: cell-based; conditions: dose <= 1.0 µM
Target sequence in this assay (P31153 whole entry, looked up, canonical isoform): as the sequence (Q3THS6 whole entry, canonical isoform) above, with I77V, I87V counted along it

[22] = target: T1, S-adenosylmethionine synthase isoform type-2; experiment: Inhibition of MAT2A (unknown origin) using L-methionine and ATP as substrate preincubated with compound for 10 mins followed by substrate addition and measured after 60 mins by kinase-glo max reagent based microplate reader analysis
Target sequence in this assay (P31153 whole entry, canonical isoform): as the sequence (Q3THS6 whole entry, canonical isoform) above, with I77V, I87V counted along it

[23] = Bioavailability in male ICR mouse at 1 mg/kg measured upto 36 hrs by LC-MS/MS analysis; format: ADME, organism-based; conditions: in vivo
[24] = Half life in male ICR mouse at 1 mg/kg, iv measured upto 36 hrs by LC-MS/MS analysis; format: ADME, organism-based; conditions: in vivo
[25] = Kinetic solubility of compound in phosphate buffer at pH 7.4; format: physicochemical; conditions: read-out: Kinetic_solubility

## Cn1cnc2ccc(-c3nc4ccc(C5CC5)cc4n(-c4ccc(OC(F)F)cc4)c3=O)cc21
B16-F10 [1]
  IC50: > 20 µM
[2]
  inhibition: Dose-dependent-effect
[3]
  inhibition: Dose-dependent-effect
MIA PaCa-2 [4]
  Activity: Active
[5]
  fraction unbound: 0.003
[6]
  IC50: 38 µM
MKN-45
  Activity: Active
[7]
  inhibition: Active
B16-F10 [8]
  Activity: Active
MIA PaCa-2 [9]
  TGI: Active
MDA-MB-231
  Activity: Active
SF-126
  Activity: Active
Cytochrome P450 1A2
  IC50: > 30 µM
B16-F10 [10]
  Activity: inactive
Daoy
  Activity: Active
[11]
  logD: 3.69
[12]
  fraction unbound: 0.016
[13]
  clearance: 0.31 L/h/kg
[14]
  Cmax: 2.6 µg/mL
Cytochrome P450 2D6
  IC50: 9.2 µM
[15]
  half-life: 6.73 h
B16-F10 [16]
  Activity: Active
[17]
  AUC(0-t) at 36 h: 3.1 µg·h/mL
BXPC-3
  Activity: Active
B16-F10 [18]
  Activity: Active
[19]
  Ratio IC50: >57
MIA PaCa-2 [20]
  Activity: Active
[21]
  inhibition: Dose-dependent-effect
[22]
  IC50: 0.049 µM
[23]
  bioavailability: 118%
[24]
  half-life: 8.43 h
[25]
  solubility kinetic: 3.11 µM (≈ 1.43 µg/mL)

From ChEMBL document CHEMBL6096692, “Discovery of 2(1H)-Quinoxalinone Derivatives as Potent and Selective MAT2A Inhibitors for the Treatment of MTAP-Deficient Cancers” (J Med Chem, 2025)
